Reference: patent US5869658A, “Photochromic indeno-fused naptho[2,1-b]pyrans” (PPG Industries, Inc., priority 1997, dated 1999)

Assays:
[1] = Lambda max of photochromic test squares by UV-Visible spectrophotometer; type: physicochemical; set-up: unit not given here; details: Varian Cary 3; for (λ) max (VIS): activated (colored) form in polymer test square, visible spectrum wavelength of maximum absorption; for (λ) max (UV): photochromic compound in polymer test square, ultraviolet wavelength closest to the visible spectrum
Experimental: (§1) Testing was done with the photochromic compounds described in Examples 1-5 and 7-9 in the following manner. A quantity of photochromic compound calculated to yield a 1.5×10^-3 molal solution was added to a flask containing 50 grams of a monomer blend of 4 parts ethoxylated bisphenol A dimethacrylate (BPA 2EO DMA), 1 part poly(ethylene glycol) 600 dimethacrylate, and 0.033 weight percent 2,2'-azobis(2-methyl propionitrile) (AIBN). The photochromic compound was dissolved into the monomer blend by stirring and gentle heating. After a clear solution was obtained, it was poured into a flat sheet mold having the interior dimensions of 2.2 mm×6 inches (15.24 cm)×6 inches (15.24 cm). The mold was sealed and placed in a horizontal air flow, programmable oven programmed to increase the temperature from 40° C. to 95° C. over a 5 hour interval, hold the temperature at 95° C. for 3 hours and then lower it to 60° C. for at least 2 hours. After the mold was opened, the polymer sheet was cut using a diamond blade saw into 2 inch (5.1 centimeters) test squares.
(§2) The Δ OD/Min, which represents the sensitivity of the photochromic compound's response to UV light, was measured over the first five (5) seconds of UV exposure, then expressed on a per minute basis. The saturation optical density (Δ OD@ Sat) was taken under identical conditions as the Δ OD/Min, except UV exposure was continued for 20 minutes. The lambda max (Vis) is the wavelength in the visible spectrum at which the maximum absorption of the activated (colored) form of the photochromic compound in a test square occurs. The lambda max (Vis) wavelength was determined by testing the photochromic test square polymerizates of Part A in a Varian Cary 3 UV-Visible spectrophotometer. The lambda (λ) max (UV) is the wavelength in the ultraviolet range closest to the visible spectrum at which the absorption of the photochromic compound occurs. This absorption was also determined with the same spectrophotometer. The bleach rate (T 1/2) is the time interval in seconds for the absorbance of the activated form of the photochromic compound in the test squares to reach one half the highest absorbance at room temperature (75° F., 23.90° C.) after removal of the source of activating light.

[2] = Photochromic response of test squares on an optical bench (ΔOD/Min, ΔOD at saturation, bleach rate); type: physicochemical; details: for ΔOD @ saturation: UV exposure continued for 20 minutes; for ΔOD @ saturation / ΔOD/MIN sensitivity: 75° F., 1.5×10^-3 molal in polymer; for ΔOD/MIN sensitivity: first five seconds of UV exposure, expressed per minute; for Bleach T 1/2: time to one half the highest absorbance at room temperature (75° F.) after removal of activating light
Experimental: as §1
The photochromic test squares prepared in Part A were tested for photochromic response on an optical bench. Prior to testing on the optical bench, the photochromic test squares were exposed to 365 nanometer ultraviolet light for about 15 minutes to activate the photochromic compounds and then placed in a 76° C. oven for about 15 minutes to bleach or inactivate the photochromic compounds. The test squares were then cooled to room temperature, exposed to fluorescent room lighting for at least 2 hours and then kept covered for at least 2 hours prior to testing on an optical bench maintained at 75° F. (23.90° C.). The bench was fitted with a 150 watt Xenon arc lamp, a remote controlled shutter, a copper sulfate bath acting as a heat sink for the arc lamp, a Schott WG-320 nm cut-off filter which removes short wavelength radiation; neutral density filter(s) and a sample holder in which the square to be tested was inserted. A collimated beam of light from a tungsten lamp was passed through the square at a small angle (approximately 30°) normal to the square. After passing through the square, the light from the tungsten lamp was directed to a detector through Spectral Energy Corp. GM-200 monochromator set at the previously determined visible lambda max of the photochromic compound being measured. The output signals from the detector were processed by a radiometer.
Change in optical density (ΔOD) was determined by inserting a test square in the bleached state into the sample holder, adjusting the transmittance scale to 100% opening the shutter from the Xenon lamp to provide ultraviolet radiation to change the test square from the bleached state to an activated (i.e., darkened) state, measuring the transmittance in the activated state, and calculating the change in optical density according to the formula: ΔOD=log(100/%Ta), where %Ta is the percent transmittance in the activated state and the logarithm is to the base 10.
as §2, with “The bleach rate (T 1/2) is the time interval in seconds for the absorbance of the activated form of the photochromic compound in the test squares to reach one half the highest absorbance at room temperature (75° F., 23.90° C.) after removal of the source of activating light.” left out

Compound | (λ) max (VIS) [1] | (λ) max (UV) [1] | ΔOD @ saturation [2] | ΔOD/MIN sensitivity [2] | Bleach T 1/2 [2] [s]
COc1ccc2c3c(c4c(c2c1)C=CC(c1ccccc1)(c1ccccc1)O4)Cc1ccccc1-3 [Example 1, 6-methoxy-2,2-diphenyl-2,13-dihydro-indeno[1'2':4,3]naphtho[2,1-b]pyran] | 437 | 366 | 0.38 | 0.52 ΔOD/MIN | 42
COc1cc2c3c(c4c(c2cc1OC)-c1ccccc1C4)OC(c1ccccc1)(c1ccccc1)C=C3 [Example 2, 6,7-dimethoxy-2,2-diphenyl-2,13-dihydro-indeno[1'2':4,3]naphtho[2,1-b]pyran] | 443 | 387 | 0.44 | 0.48 ΔOD/MIN | 51
COc1ccc(C2(c3ccccc3F)C=Cc3c(c4c(c5cc(OC)c(OC)cc35)-c3ccccc3C4)O2)cc1 (stereo not shown) [Example 3, 6,7-dimethoxy-2-(2-fluorophenyl)-2-(4-methoxyphenyl)-2,13-dihydro-indeno[1',2':4,3]naphtho[2,1-b]pyran] | 464 | 385 | 1.22 | 0.48 ΔOD/MIN | 227
COc1cc2c3c(c4c(c2cc1OC)-c1ccccc1C4C)OC(c1ccccc1)(c1ccccc1)C=C3 (stereo not shown) [Example 4, 6,7-dimethoxy-2,2-diphenyl-13-methyl-2,13-dihydro-indeno[1',2':4,3]naphtho[2,1-b]pyran] | 442 | 356 | 0.38 | 0.43 ΔOD/MIN | 62
COc1cc2c3c(c4c(c2cc1OC)-c1ccccc1C4(C)C)OC(c1ccccc1)(c1ccccc1)C=C3 [Example 5, 6,7-dimethoxy-2,2-diphenyl-13,13-dimethyl-2,13-dihydro-indeno[1',2':4,3]naphtho[2,1-b]pyran] | 446 | 358 | 0.37 | 0.39 ΔOD/MIN | 58
CCCCC1(O)c2ccccc2-c2c1c1c(c3cc(OC)c(OC)cc23)C=CC(c2ccccc2)(c2ccccc2)O1 (stereo not shown) [Example 7, 6,7-dimethoxy-2,2-diphenyl-13-hydroxy-13-butyl-2,13-dihydro-indeno[1',2':4,3]naphtho[2,1-b]pyran] | 445 | 356 | 0.23 | 0.41 ΔOD/MIN | 38
COc1cc2c3c(c4c(c2cc1OC)-c1ccccc1C4(C)O)OC(c1ccccc1)(c1ccccc1)C=C3 (stereo not shown) [Example 8, 6,7-dimethoxy-2,2-diphenyl-13-hydroxy-13-methyl-2,13-dihydro-indeno[1',2':4,3]naphtho[2,1-b]pyran] | 459 | 361 | 0.25 | 0.41 ΔOD/MIN | 35
COc1cc2c3c(c4c(c2cc1OC)-c1ccccc1C4O)OC(c1ccccc1)(c1ccccc1)C=C3 (stereo not drawn) [Example 9, 6,7-dimethoxy-2,2-diphenyl-13-hydroxy-2,13-dihydro-indeno[1',2':4,3]naphtho[2,l-b]pyran] | 469 | 359 | 0.17 | 0.28 ΔOD/MIN | 31
